Test [1] relates to Human Valvular Interstitial Cells (hVICs). The test is described as follows: human M1 macrophages secretome-induced hVICs calcification (o-cresolphthalein complexone calcium measurement). In kind it is cell-based. As to conditions: M1 macrophages pre-treatment (5 μM, 72 h); n=1 VICs patient in triplicates, CM from n=1 volunteer; FIG. 4. From the text: Human aortic valves form AS patients who underwent aortic valve surgical replacement were collected at Rouen University Hospital, starting on May 2 2016, after agreement of The CPP Nord-Ouest I (RCB: 2016-A00137-44). Human Valvular Interstitial Cells (hVICs) were isolated and cultured as already described. (Morvan, Arangalage et al. 2019) Briefly, aortic valve leaflets previously collected and washed in PBS containing antibiotics were cut into pieces and digested with type I collagenase (0.22 U/mg) for 3 hours at 37° C. […]
(§1) Previously isolated hVICs were treated for 10 days with human monocytes and M1 macrophages CM diluted v/v with DMEM (Gibco, Cat #41966-029) in the presence or not of inorganic […] (Pi) at a final concentration up to 1.9 mM (0.9 mM of […] already present in DMEM). Treatment with conditioned medium was renewed every 2 days and calcium content in each well was measured with the o-cresolphthalein complexone colorimetric method. […]
Data are obtained from indicated number of hVICs isolated from distinct patients. […] Data are expressed as mean values of control (DMSO (vehicle) treated monocytes or M1 macrophages)±SEM. When indicated, statistical significance was determined by non-parametric Kruskal-Wallis test followed by Dunns post-hoc test using Graphpad Prism 5 software. […]

The test system is the same in test [2]. The test is described as follows: human monocytes secretome-induced hVICs calcification (o-cresolphthalein complexone calcium measurement). In kind it is cell-based.
Description: Human aortic valves form AS patients who underwent aortic valve surgical replacement were collected at Rouen University Hospital, starting on May 2 2016, after agreement of The CPP Nord-Ouest I (RCB: 2016-A00137-44). Human Valvular Interstitial Cells (hVICs) were isolated and cultured as already described. (Morvan, Arangalage et al. 2019) Briefly, aortic valve leaflets previously collected and washed in PBS containing antibiotics were cut into pieces and digested with type I collagenase (0.22 U/mg) for 3 hours at 37° C. Digested valves are filters on 70 μm cell strainers to remove undigested valve parts and obtain a homogenous cell suspension resuspended in complete smooth muscle cell basal 2 medium (PromoCell, Heidelberg, Germany) with 10% Fetal Bovine Serum (FBS) Penicillin/Streptomycin (P/S, Sigma-Aldrich Cat #P4333). Cell suspension is then seeded into rat type collagen I (3 mg/ml, Gibco, Cat #A1048301) coated flask and incubated at 37° C., 5% CO2 for several days until reaching cell confluency. At this step hVICs are obtained and cultured in DMEM (Dulbecco's modified Eagle's medium, Gibco, Cat #41966-029) with 10% FBS and P/S until passage 4. […]
as §1
Data are obtained from indicated number of hVICs isolated from distinct patients. […] Data are expressed as mean values of control (DMSO (vehicle) treated monocytes or M1 macrophages)±SEM. When indicated, statistical significance was determined by non-parametric Kruskal-Wallis test followed by Dunns post-hoc test using Graphpad Prism 5 software. The use of non-parametric Kruskal-Wallis test was determined depending Shapiro-Wilk normality test data distribution.

Molecules are shown by their SMILES.

From US20240350508A1, “USE OF EZH2 INHIBITORS FOR THE TREATMENT OF AORTIC VALVE STENOSIS” (INSERM (INSTITUT NATIONAL DE LA SANTÉ ET DE LA RECHERCHE …, priority 2021, published 2024) come the findings set out here.

Take `CC[C@H](C)n1cc(C)c2c(C(=O)NCc3c(C)cc(C)[nH]c3=O)cc(-c3ccc(N4CCNCC4)nc3)cc21` [GSK-126]: the “M1 secretome-induced hVICs calcification” value in test [1] is “reduced”. For the same compound, the “CAVD patient monocytes secretome-induced hVICs calcification” value in test [2] (monocytes from CAVD patients pre-treated with 5 μM for 72 h, CM1, hVICs with 1.9 mM Pi for 10 days, vs vehicle (DMSO), FIG. 2) is listed as “significantly reduced”. For the same compound, in test [2] (monocytes from volunteers pre-treated with 5 μM for 72 h, CM1, hVICs with 1.9 mM Pi for 10 days, vs vehicle (DMSO), FIG. 1), the “volunteer monocytes secretome-induced hVICs calcification” value is “significantly reduced”. For the same compound, in test [2] (monocytes from volunteers, 72 h pre-treatment then new conditioned medium for 24 h (CM2) in the absence of inhibitor, 1.9 mM Pi, FIG. 3), the “volunteer monocytes secretome-induced hVICs calcification 24 h after monocytes pre-treatment” value was “the same result was obtained”.
